Measurements as given in US20250195504A1, “NALTREXAMINE DERIVATIVES BEARING 5-MEMBER HETEROCYCLIC RING SYSTEMS AND OPIOID RECEPTOR MODULATORS” (VIRGINIA COMMONWEALTH UNIVERSITY, priority 2022, published 2025).
Structures can show the parent of a compound that is named as a salt. Where two headings read alike, the source gives them in different places.

Tests used:
[1] = Self-administration Studies, Abuse liability; details: in vivo
[2] = molecular target: MOR (Mus musculus, UniProt P42866); experiment: MOR [35S]GTPγS functional assay (MOR-CHO membranes); assay type: biochemical; design: expressed in transfected cells; host or cells: CHO; details: Tables A, B
Chain of MOR (P42866 whole entry): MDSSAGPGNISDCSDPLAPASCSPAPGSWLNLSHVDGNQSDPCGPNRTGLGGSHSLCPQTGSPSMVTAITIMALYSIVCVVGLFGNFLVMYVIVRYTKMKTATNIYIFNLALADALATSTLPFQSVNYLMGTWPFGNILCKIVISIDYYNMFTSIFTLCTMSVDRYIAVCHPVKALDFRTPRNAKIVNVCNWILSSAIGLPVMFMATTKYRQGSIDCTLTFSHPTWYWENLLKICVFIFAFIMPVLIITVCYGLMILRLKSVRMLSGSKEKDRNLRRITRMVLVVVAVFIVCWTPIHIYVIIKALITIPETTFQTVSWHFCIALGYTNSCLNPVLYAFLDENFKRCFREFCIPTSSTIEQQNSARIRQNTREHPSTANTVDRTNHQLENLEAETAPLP
Method: The [^35S]GTPγS functional assay was conducted to determine the efficacy of the compounds at the MOR. […] The Bradford protein assay was utilized to determine and adjust the concentration of protein required for the assay. Nonspecific binding was determined with 20 μM unlabeled GTPγS. Furthermore, 3 μM DAMGO was included in the assay as the maximally effective concentration of a full agonist for the MOR. After incubation, the bound radioactive ligand was separated from the free radioligand by filtration through a GF/B glass fiber filter paper and rinsed three times with ice-cold wash buffer (50 mM Tris-HCl, pH 7.2) using the Brandel harvester. Bound radioactivity was determined by liquid scintillation counting. All assays were determined in duplicate and repeated at least three times. Net stimulated [^35S]GTPγS binding was defined as agonist-stimulated minus basal binding in the absence of agonist. Percent of DAMGO-stimulated [^35S]GTPγS binding was defined as (net-stimulated binding by ligand/net-stimulated binding by 3 μM DAMGO)×100%.
Results were reported as mean values ±SEM.
The [^35S]-GTPγS binding assay was carried out as well to determine the functionality on the MOR of each compound. […] The [^35S]GTPγS functional assay was conducted to determine the efficacy of the compounds at the MOR, KOR and DOR. […] The Bradford protein assay was utilized to determine and adjust the concentration of protein required for the assay. Nonspecific binding was determined with 20 μM unlabeled GTPγS. Furthermore, 3 μM DAMGO/U50488H/SNC80 was included in the assay as the maximally effective concentration of a full agonist for the MOR/KOR/DOR. After incubation, the bound radioactive ligand was separated from the free radioligand by filtration through a GF/B glass fiber filter paper using a Brandel harvester. Bound radioactivity was determined by liquid scintillation counting. All assays were determined in duplicate and repeated at least three times. Net stimulated [^35S]GTPγS binding was defined as agonist-stimulated minus basal binding in the absence of agonist. Percent of DAMGO/U50488H/SNC80 stimulated [^35S]GTPγS binding was defined as (net-stimulated binding by ligand/net-stimulated binding by 3 μM DAMGO U50488H/SNC80)×100%.

[3] = molecular target: CYP2D6 (Homo sapiens, UniProt P10635); experiment: CYP450 enzyme testing, CYP2D6
Chain of CYP2D6 (P10635 whole entry): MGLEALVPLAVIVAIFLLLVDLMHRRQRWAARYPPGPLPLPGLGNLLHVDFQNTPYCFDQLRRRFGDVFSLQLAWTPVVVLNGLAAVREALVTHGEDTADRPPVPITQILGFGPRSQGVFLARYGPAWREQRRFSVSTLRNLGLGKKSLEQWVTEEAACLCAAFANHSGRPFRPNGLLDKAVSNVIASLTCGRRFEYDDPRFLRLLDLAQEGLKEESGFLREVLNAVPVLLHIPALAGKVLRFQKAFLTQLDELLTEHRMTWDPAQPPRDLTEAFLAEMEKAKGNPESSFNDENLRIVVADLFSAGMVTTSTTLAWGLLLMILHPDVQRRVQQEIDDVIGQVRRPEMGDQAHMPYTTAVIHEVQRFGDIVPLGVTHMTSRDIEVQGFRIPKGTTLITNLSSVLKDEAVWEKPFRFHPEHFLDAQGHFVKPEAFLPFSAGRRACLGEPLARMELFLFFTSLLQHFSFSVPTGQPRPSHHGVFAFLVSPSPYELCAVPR

[4] = test system: male Swiss Webster mice; experiment: warm-water tail immersion assay, antagonism of morphine's antinociception; assay type: in vivo, mouse; details: for Tail flick assay (dose response) AD50: 95% CL
Method: Following this single dose assessment, in vivo dose-response studies with eight identified antagonists were conducted.
(§1) Antinociceptive effect of synthesized compounds was determined using the warm-water tail immersion assay. Swiss Webster mice (six male mice for each group, 25-35 g, 6-8 weeks old) were used in this assay. Antinociception for all compounds was examined in male Swiss Webster mice. […] To prevent tissue damage, a 10 s maximum cutoff time was imposed. Antinociceptive response was calculated as the percentage of maximum possible effect (% MPE), where % MPE=[(test−control latency)/(10−control latency)]×100.
(§2) Warm-water tail immersion assay is a well-established assay for evaluating opioid analgesics, especially MOR agonists. […] In this context, all 24 compounds were first evaluated for their acute antinociception tail-withdrawal assay (FIG. 5A).
(§3) The tail-withdrawal test was performed using a water bath with the temperature maintained at 56±0.1° C. Baseline latency was measured before any injections. Each mouse was gently wrapped in a cloth with only the tail exposed. The distal one-third of the tail was immersed perpendicularly in water, and the mouse rapidly flicked the tail from the bath was seen as the first sign of discomfort. The duration of time the tail remained in the water bath was counted as the baseline latency. Untreated mice with baseline latency reaction times ranging from 2 to 4 seconds were used. Test latency was obtained 20 min later after each injection. A 10-second maximum cutoff latency was used to prevent any tissue damage. Antinociception was quantified as the percentage of maximal possible effect (% MPE), which was calculated as % MPE=[(test latency−control latency)/(10−control latency)]×100. The % MPE value was calculated for each mouse using 6 mice per group. Testing compounds were given 10 mg/kg (s.c.) to each mouse.

[5] = molecular target: hNK1 (Homo sapiens, UniProt P25103); experiment: side effect profiling, hNK1; assay type: binding; details: at 10 uM
Chain of hNK1 (P25103 whole entry): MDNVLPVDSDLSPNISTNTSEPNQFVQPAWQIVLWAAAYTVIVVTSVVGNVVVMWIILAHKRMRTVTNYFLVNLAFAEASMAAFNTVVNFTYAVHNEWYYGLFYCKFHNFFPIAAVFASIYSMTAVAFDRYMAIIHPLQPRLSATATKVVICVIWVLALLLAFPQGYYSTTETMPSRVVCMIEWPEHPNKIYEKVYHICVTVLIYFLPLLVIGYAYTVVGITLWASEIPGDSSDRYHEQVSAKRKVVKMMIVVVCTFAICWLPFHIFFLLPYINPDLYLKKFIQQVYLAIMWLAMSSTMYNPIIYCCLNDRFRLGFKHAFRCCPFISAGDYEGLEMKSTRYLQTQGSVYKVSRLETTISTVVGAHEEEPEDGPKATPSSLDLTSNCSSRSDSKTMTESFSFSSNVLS

[6] = molecular target: KOR (Mus musculus, UniProt P33534); experiment: KOR [35S]GTPγS binding assay; assay type: biochemical; design: expressed in transfected cells; host or cells: CHO; details: for Emax: read-out: 35S-GTP[γS]-Binding KOR Efficacy (% max of U50, 488H)
Chain of KOR (P33534 whole entry): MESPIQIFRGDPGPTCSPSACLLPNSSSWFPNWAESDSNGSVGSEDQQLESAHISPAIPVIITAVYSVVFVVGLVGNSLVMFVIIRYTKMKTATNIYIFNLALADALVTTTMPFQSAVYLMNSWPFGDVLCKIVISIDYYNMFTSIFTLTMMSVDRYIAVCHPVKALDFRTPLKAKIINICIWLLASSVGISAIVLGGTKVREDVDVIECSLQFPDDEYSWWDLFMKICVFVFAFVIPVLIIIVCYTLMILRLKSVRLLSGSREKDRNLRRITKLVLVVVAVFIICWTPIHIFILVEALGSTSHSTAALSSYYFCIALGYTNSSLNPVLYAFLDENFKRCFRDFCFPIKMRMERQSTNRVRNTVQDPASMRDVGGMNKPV
Method: The [^35S]GTPγS functional assay was conducted to determine the efficacy of the compounds at the MOR, KOR and DOR. […] The Bradford protein assay was utilized to determine and adjust the concentration of protein required for the assay. Nonspecific binding was determined with 20 μM unlabeled GTPγS. Furthermore, 3 μM DAMGO/U50488H/SNC80 was included in the assay as the maximally effective concentration of a full agonist for the MOR/KOR/DOR. After incubation, the bound radioactive ligand was separated from the free radioligand by filtration through a GF/B glass fiber filter paper using a Brandel harvester. Bound radioactivity was determined by liquid scintillation counting. All assays were determined in duplicate and repeated at least three times. Net stimulated [^35S]GTPγS binding was defined as agonist-stimulated minus basal binding in the absence of agonist. Percent of DAMGO/U50488H/SNC80 stimulated [^35S]GTPγS binding was defined as (net-stimulated binding by ligand/net-stimulated binding by 3 μM DAMGO U50488H/SNC80)×100%.

[7] = Metabolic Stability (half-life), rat
[8] = Protein Binding (plasma), rat
[9] = test system: male Swiss Webster mice; experiment: warm-water tail immersion (tail flick / tail-withdrawal) assay, antinociception; assay type: in vivo, mouse; details: mice
Method: In this assay, the duration for which mice kept their tails in the warm water was recorded.
All thirty-six compounds' antinociception were examined in tail immersion assay first to preclude any opioid receptor agonists.
as §1, with “Swiss” for “Antinociceptive effect of synthesized compounds was determined using the warm-water tail immersion assay. Swiss”
as §2, §3

[10] = test system: Serotonin receptor, dopamine receptor, biogenic amine transporters; experiment: side effect profiling panel binding; details: up to 10 μM, except the targets listed
[11] = molecular target: T1, MOR-CHO cells (Mus musculus, UniProt P42866); experiment: Calcium flux on MOR-CHO cells, acting as antagonists against DAMGO; assay type: cell-based
T1 construct: expressed in transfected cells; host or cells: CHO
T1 sequence (P42866 whole entry): as the sequence (P42866 whole entry) above

Row | Structure (SMILES) | Self-administration Studies Abuse liability [1] | 35S-GTP[γS]-Binding MOR Efficacy (% max of DAMGO) [2] | CYP2D6 inhibition (in words) ([3]; human) | Tail flick assay (dose response) AD50 ([4]; mice) | hNK1 binding [5] | Emax [6] | half-life [7] | fraction unbound [8] | Tail flick assay, anti-nociceptive effect (in words) ([9]; single dose, dose printed with the value) | side effect profiling, binding to panel [10] | EC50 ([2]; 35S-GTP[γS]-Binding MOR Potency EC50, nM) | IC50 [11] | Tail flick assay, percentage maximum possible effect (% MPE) ([9]; single dose 10 mg/kg) | EC50 ([2]; read-out: 35S-GTP[γS]-Binding MOR Potency EC50) | Tail flick assay, antagonism of morphine's antinociceptive effect (in words) ([4]; mice, single dose 10 mg/kg) | EC50 ([6]; Tables A, B, read-out: 35S-GTP[γS]-Binding KOR Potency EC50) | CYP2D6 inhibition (in words) [3] | antagonism of morphine's antinociceptive effect (in words) ([4]; Example 1 compounds, 10 mg/kg s.c. in the presence of morphine (10 mg/kg)) | AD50 mg/kg (95% CL) to antagonize morphine mediated antinociception ([4]; Example 1 compounds, s.c., mice, morphine 10 mg/kg)
1 | O=C(N[C@H]1CCC2(O)C3Cc4ccc(O)c5c4[C@@]2(CCN3CC2CC2)[C@H]1O5)c1ccc[nH]1 (stereo partly drawn) [Example 1 compound 1, 17-Cyclopropylmethyl-3,14β-dihydroxy-4,5α-epoxy-6a-[(2′-pyrrolyl)carboxamido]morphinan hydrochloride] | No significant abuse liability | 12.11 ± 2.64% | Only moderate at CYP2D6 and CYP2C19 | The AD50 of NAY was determined as 4.71 (1.61- mg/kg | 89% | 43.4 ± 1.36% | > 60 min | 0.43 | No anti-nociceptive effect up to 100 mg/kg. | No significant binding up | – | – | – | – | – | – | – | – | –
2 | O=C(N[C@H]1CC[C@@]2(O)[C@H]3Cc4ccc(O)c5c4[C@@]2(CCN3CC2CC2)[C@H]1O5)c1cccs1 [Example 1 compound 25, 17-Cyclopropylmethyl-3,14β-dihydroxy-4,5α-epoxy-6α-(2′-thienylcarboxamido)morphinan hydrochloride] | – | 21.81 ± 6.17% | – | – | – | 50.6 ± 0.95% | > 60 min | 0.36 | – | – | 0.49 ± 0.09 nM | 26.7 nM | effect (% MPE) of NAT (10 mg/kg) was 15.2 | – | – | – | – | – | –
3 | O=C(N[C@H]1CC[C@@]2(O)[C@H]3Cc4ccc(O)c5c4[C@@]2(CCN3CC2CC2)[C@H]1O5)c1nccs1 [NTZ, 17-Cyclopropylmethyl-3,14β-dihydroxy-4,5α-epoxy-6α-(2′-thiazolylcarboxamido)morphinan hydrochloride] | No significant abuse liability | 11.29 ± 1.30% | potent at CYP2D6 inhibition | The AD50 of VZMN283 was determined as 0.043 mg/kg | – | 23.5 ± 2.03% | > 60 min | 0.4 | – | No significant binding up | – | – | – | 2.16 ± 0.38 nM | significantly antagonized morphine's antinociceptive | 3.83 ± 0.62 nM | – | – | –
4 | O=C(N[C@H]1CC[C@@]2(O)[C@H]3Cc4ccc(O)c5c4[C@@]2(CCN3CC2CC2)[C@H]1O5)c1ccsc1 [Example 1 compound 31, 17-Cyclopropylmethyl-3,14β-dihydroxy-4,5α-epoxy-6α-(3′-thienylcarboxamido)morphinan hydrochloride] | No significant abuse liability | 30.66 ± 4.44% | – | – | hNK1 (80% at 10 uM) | – | 44 min | 0.44 | – | – | – | 28.9 nM | – | – | – | – | Only moderate at CYP2D6 and CYP2C19 | significantly antagonized morphine's antinociceptive effect | 1.51 mg/kg
